These results are taken from patent US11925667B2, “Engineered therapeutic probiotic system and method” (priority 2018, dated 2024).

Read-outs that look alike come from different tables or passages of the source.

Series [1] deals with HCT116 human colorectal carcinoma cells. The series can be described thus: Cell toxicity assay (MTT), HCT116. The series is classed as cell-based. To be noted: for Complete inhibition: HCT116 colorectal; for GI50: Homo sapiens, HCT-116, read-out: GI 50 value. From the text:
(§1) Cell culture and toxicity assay. While HCT116 human colorectal carcinoma cells (ATCC, Manassas, USA), LoVo human colorectal adenocarcinoma cells (ATCC), AGS human gastric adenocarcinoma cells (ATCC), MCF7 human breast adenocarcinoma cells (ATCC), human esophageal smooth muscle primary cells (SMCs) (Cell Biologics, Chicago, USA) and CT26 mouse colorectal carcinoma cells (ATCC) are used according to the claimed invention, other illustrative cell lines may similarly be utilized. Cells are cleared of mycoplasma contamination prior to use using Mycoalert™ PLUS mycoplasma detection kit (Lonza). HCT116 cells are cultured in McCoy's 5A medium, LoVo and AGS cells in Ham's F12 medium, MCF7 cells in DMEM medium, CT26 cells in RPMI medium, and SMCs in the specific medium kit purchased from Cell Biologics. In this illustrative embodiment, unless otherwise stated all cell culture media are purchased from Lonza (Walkersville, USA) and are supplemented with antibiotics (penicillin/streptomycin) and 5% fetal bovine serum (FBS, v/v). SMCs are prepared according to the manufacturer's protocol. All cell cultures are maintained at 37° C. and 5% CO2. Cells are seeded in 96-well plates or on glass coverslips in 6-well plates at a density of 5×10^5/well and are cultured at 37° C. and 5% CO2 a day before protein-binding studies or co-culturing with transformed Nissle cells.
(§2) Cellular viability is measured at 3 hours, 24 hours and 72 hours post-treatment using the MTT assay (Sigma, St. Louis, USA). The inhibitory activity of myrosinase-converted AITC is performed by incubating cancer cells grown to 60% confluency with 0.1 μM of purified secreted I1 myrosinase with 0˜10 mM sinigrin at 37° C. and 5% CO2 and was sampled at 3 hours, 24 hours and 72 hours post-treatment. The MTT readout is fitted to a dose-response curve to determine the GI50 value (Eq. 2). Absorbance (570 nm)=Bottom+(Top−Bottom)/(1+10^(([Inhibitor]−Log 10 GI50))) (Eq. 2) HlpA binding assay. The HlpA gene sequence is optimized for E. coli expression, and the gene is cloned into a pET28b vector with an N-terminal GFP. GFP-HlpA and GFP are expressed using similar purification protocols, described above. […] Treated and adherent cells are washed with sterile PBS twice before staining with DAPI. The GFP/DAPI ratio is used to evaluate the binding ratio of protein binding per cell (Eq. 3). […] The cancer 394 cells are washed twice with 1×PBS and measured for DAPI and RFP emission. The fluorescence emission is compared on the linear standard curve of stained cells against the average fluorescence emission to determine the binding ratio of E. coli to cancer cells.

For series [2], the system named is AGS human gastric adenocarcinoma cells. Put plainly: Cell toxicity assay (MTT), AGS. The series is classed as cell-based. To be noted: for Complete inhibition: AGS gastric; for GI50: Homo sapiens, read-out: GI 50 value.
Excerpt: as §1, §2

For series [3], the system named is MCF7 human breast adenocarcinoma cells. Put plainly: Cell toxicity assay (MTT), MCF7. As to conditions: for GI50: Homo sapiens, MCF7, read-out: GI 50 value; for Complete inhibition: MCF7 breast. The series is classed as cell-based.
Excerpt: as §1, §2

Series [4] relates to human esophageal smooth muscle primary cells (SMCs). The series can be described thus: Cell toxicity assay (MTT), SMC. To be noted: for GI50: Homo sapiens, read-out: GI 50 value. Type of series: cell-based.
Excerpt: as §1, with “CO2.” for “CO2. Cells are seeded in 96-well plates or on glass coverslips in 6-well plates at a density of 5×10^5/well and are cultured at 37° C. and 5% CO2 a day before protein-binding studies or co-culturing with transformed Nissle cells.”
The MTT readout is fitted to a dose-response curve to determine the GI50 value (Eq. 2). Absorbance (570 nm)=Bottom+(Top−Bottom)/(1+10^(([Inhibitor]−Log 10 GI50))) (Eq. 2) HlpA binding assay. The HlpA gene sequence is optimized for E. coli expression, and the gene is cloned into a pET28b vector with an N-terminal GFP. GFP-HlpA and GFP are expressed using similar purification protocols, described above. […] Treated and adherent cells are washed with sterile PBS twice before staining with DAPI. The GFP/DAPI ratio is used to evaluate the binding ratio of protein binding per cell (Eq. 3). Ratio (GFP/DAPI)=Bottom+(Top−Bottom)/(1+10^(([Ligand]−Log 10 KD))) (Eq. 3) Similarly, N-terminal INP tagged to HlpA are cloned into the pBbE8K vector and co390 transformed with pBbE8a-RFP into E. coli Nissle. E. coli cells are cultured in LB supplemented with 50 mg/L ampicillin and 25 mg/L kanamycin and are induced with 1% arabinose. […] The cancer 394 cells are washed twice with 1×PBS and measured for DAPI and RFP emission. The fluorescence emission is compared on the linear standard curve of stained cells against the average fluorescence emission to determine the binding ratio of E. coli to cancer cells.

In series [5] the test system is various colorectal, gastric and breast cancer cell lines. The series can be described thus: Growth inhibition in cancer cell lines. Type of series: cell-based. From the text:
(§3) Cell culture and toxicity assay. While HCT116 human colorectal carcinoma cells (ATCC, Manassas, USA), LoVo human colorectal adenocarcinoma cells (ATCC), AGS human gastric adenocarcinoma cells (ATCC), MCF7 human breast adenocarcinoma cells (ATCC), human esophageal smooth muscle primary cells (SMCs) (Cell Biologics, Chicago, USA) and CT26 mouse colorectal carcinoma cells (ATCC) are used according to the claimed invention, other illustrative cell lines may similarly be utilized. Cells are cleared of mycoplasma contamination prior to use using Mycoalert™ PLUS mycoplasma detection kit (Lonza). HCT116 cells are cultured in McCoy's 5A medium, LoVo and AGS cells in Ham's F12 medium, MCF7 cells in DMEM medium, CT26 cells in RPMI medium, and SMCs in the specific medium kit purchased from Cell Biologics. […]
(§4) Cellular viability is measured at 3 hours, 24 hours and 72 hours post-treatment using the MTT assay (Sigma, St. Louis, USA). […] The MTT readout is fitted to a dose-response curve to determine the GI50 value (Eq. 2). Absorbance (570 nm)=Bottom+(Top−Bottom)/(1+10^(([Inhibitor]−Log 10 GI50))) (Eq. 2) HlpA binding assay. […] The cancer 394 cells are washed twice with 1×PBS and measured for DAPI and RFP emission. The fluorescence emission is compared on the linear standard curve of stained cells against the average fluorescence emission to determine the binding ratio of E. coli to cancer cells.

The subject of series [6] is LoVo human colorectal adenocarcinoma cells. Put plainly: Cell toxicity assay (MTT), LoVo. Type of series: cell-based. To be noted: for GI50: Homo sapiens, LoVo, read-out: GI 50 value; for Complete inhibition: LoVo colorectal.
Excerpt: as §1, §2

The test system of series [7] is CT26 mouse colorectal carcinoma cells. The series can be described thus: Cell toxicity assay (MTT), CT26. The series is classed as cell-based. As to conditions: for Complete inhibition: CT26 colorectal; for GI50: Mus musculus, CT26, read-out: GI 50 value.
Excerpt: as §1, §2

Series [8] concerns various colorectal, gastric and breast cancer cell lines. Put plainly: Growth inhibition (MTT), summary over cancer cell lines. The series is classed as cell-based. As to conditions: read-out: 50% growth inhibition (GI50) values.
Excerpt: as §3
The MTT readout is fitted to a dose-response curve to determine the GI50 value (Eq. 2). Absorbance (570 nm)=Bottom+(Top−Bottom)/(1+10^(([Inhibitor]−Log 10 GI50))) (Eq. 2) HlpA binding assay. […] The cancer 394 cells are washed twice with 1×PBS and measured for DAPI and RFP emission. The fluorescence emission is compared on the linear standard curve of stained cells against the average fluorescence emission to determine the binding ratio of E. coli to cancer cells.

For series [9], the system named is primary stem cells or other non-cancer cell lines. As to conditions: in words; cited from earlier work.
The subject of series [10] is MCF7 breast adenocarcinoma cells. Put plainly: Growth inhibition assay (MTT), MCF7. The series is classed as cell-based, human.
Excerpt: as §3
as §4, with “cells. […]” for “cells.”

Series [11] deals with AGS gastric adenocarcinoma cells. The series can be described thus: Growth inhibition assay (MTT), AGS. Type of series: cell-based, human.
Excerpt: as §3
as §4, with “cells. […]” for “cells.”

Series [12] concerns HCT116 colorectal carcinoma cells. Put plainly: Growth inhibition assay (MTT), HCT116. Type of series: cell-based, human.
Excerpt: as §3
as §4, with “cells. […]” for “cells.”

The subject of series [13] is SMC (esophageal smooth muscle primary cells). Put plainly: Growth inhibition assay (MTT), SMC. As to conditions: purified YebF-I1 fusion protein and sinigrin, in words. Type of series: cell-based, human.
Excerpt: as §3
as §4, with “cells. […]” for “cells.”

The test system of series [14] is LoVo colorectal adenocarcinoma cells. Put plainly: Growth inhibition assay (MTT), LoVo. Type of series: cell-based, human.
Excerpt: as §3
as §4, with “cells. […]” for “cells.”

The test system of series [15] is CT26 colorectal carcinoma cells. Put plainly: Growth inhibition assay (MTT), CT26. The series is classed as cell-based, mouse.
Excerpt: as §3
as §4, with “cells. […]” for “cells.”

Series [16] concerns the target HCT116. The series can be described thus: HlpA binding assay (GFP/DAPI ratio), HCT116. As to conditions: HCT116 human colorectal cell line. As to the method:
as §2

The subject of series [17] is breast (MCF7) cancer cell line. The series can be described thus: HlpA binding assay (GFP/DAPI ratio), MCF7. On the set-up: species or system human. As to the method: as §2
Series [18] has as its target CT26. The series can be described thus: HlpA binding assay (GFP/DAPI ratio), CT26. To be noted: CT26 murine colorectal cell line. The method, then: as §2
Series [19] concerns gastric (AGS) cancer cell line. Put plainly: HlpA binding assay (GFP/DAPI ratio), AGS. Details: species or system human. As to the method: as §2
The target in series [20] is LoVo. Put plainly: HlpA binding assay (GFP/DAPI ratio), LoVo. To be noted: LoVo human colorectal cell line. The method, then:
as §2

Series [21] concerns smooth muscle cells. The series can be described thus: HlpA binding assay (GFP/DAPI ratio), smooth muscle cells. On the set-up: species or system human. As to the method:
as §2

Setting [22] is: 0.1 μM purified secreted I1 myrosinase with sinigrin.
Setting [23] is: Homo sapiens, 0.1 μM purified secreted I1 myrosinase with 0~10 mM sinigrin, read-out: GI 50 value.

With `C=CCN=C=S` [AITC, allyl isothiocyanate], the Complete inhibition is less than 24 h in series [1]; less than 24 h in [2]; less than 3 h in series [3]; less than 24 h in [6]; less than 24 h in series [7]. Moreover, the GI50 came out at 116 µM in series [1]; 18 µM in [2]; 104 µM in series [3]; 589 µM in series [4]; 74 µM in series [6]; 15 µM in series [7]. The GI50 in series [8] was roughly 100 µM. The “inhibition of primary smooth muscle cells” value in series [4] was “does not inhibit”. The “Inhibition of cancer cell growth compared with L-sulforaphane” value in series [5] (in words) is listed as “poorer efficacy compared with L-sulforaphane”.

Regarding `C[S@@+]([O-])CCCCN=C=S` [L-sulforaphane], the Complete inhibition was less than 24 h in series [1]; less than 24 h in [2]; less than 3 h in series [3]; less than 24 h in [6]; less than 24 h in [7]. For the same molecule, the GI50 in series [1] worked out at 30 µM; in [2], 15 µM; in series [3] it was 29 µM; in series [4] (SMC primary cells, MTT), 375 µM; in series [6], 23 µM; in [7], 45 µM. Also, the GI50 in [8] (various colorectal, gastric and breast cancer cell lines) is less than 100 µM. Besides, in series [9], the “Effect on primary stem cells or other non-cancer cell lines” value was “does not affect”. In addition, the “inhibition of primary smooth muscle cells” value in series [4] is recorded as “does not inhibit”. For the same molecule, the “Growth inhibition observed within” value in series [5] (upon adding L-sulforaphane) is no more than 24 h.

For `C=CCN=C=S` [YebF-I1-converted AITC, allyl isothiocyanate], the Complete inhibition in series [10] (setting [22]) was less than 24 h; in [11] (setting [22]) it was less than 24 h; in series [12] (setting [22]) it was less than 24 h; in series [14] (setting [22]) it was less than 21 h; in [15] (setting [22]) it was less than 24 h. In addition, the GI50 was 139 µM in series [10] (setting [23]); 26 µM in series [11] (setting [23]); 155 µM in [12] (Homo sapiens, HCT-116, 0.1 μM purified secreted I1 myrosinase with 0~10 mM sinigrin, read-out: GI 50 value); 232 µM in [14] (setting [23]); 46 µM in [15] (Mus musculus, 0.1 μM purified secreted I1 myrosinase with 0~10 mM sinigrin, read-out: GI 50 value). In addition, in series [13], the “Inhibition of primary smooth muscle cell line” value was “no inhibition”.

For the molecule “GFP-HlpA: purified N-terminal GFP-tagged Histone-like protein A (HlpA) from Streptococcus gallolyticus”, the binding affinity entry in [16], in series [18] and in [20] was “sub-micromolar” each time. For the same molecule, the binding result in [17] and in series [19] was “No binding” throughout. The “weaker binding affinity relative to colorectal cell lines” value in series [21] was determined as 6 fold.
